What all share (type): biochemical
Experiment [1] addresses VEGFR2 (Homo sapiens (Human), UniProt P35968). Description: VEGFR2 activity inhibition testing (HTRF in vitro kinase assay). The note with it: humanized recombinant VEGFR2 protein, 3.5 μM ATP. As for the experimental part:
The IC50 value of the compound is calculated from 8 concentration points with the XLfit (ID Business Solutions Ltd., UK) software through the following equation: Y=Bottom+(Top−Bottom)/(1+10^((log IC50−X)*slope factor)) • where Y is the inhibition percentage, X is the logarithm of the concentration of the test compound, Bottom is the maximum inhibition percentage, Top is the minimum inhibition percentage, and slope factor is the slope coefficient of the curve. VEGFR2 Activity Inhibition Testing
An in vitro kinase assay was used to evaluate the effect of the compounds of the present invention on VEGFR2 activity.
(§1) The experimental method is summarized as follows:
The in vitro activity of VEGFR2 was determined by detecting the phosphorylation level of the substrate in the kinase reaction using a homogeneous time-resolved fluorescence (HTRF) kinase detection kit (Cisbio, catalog number 62TKOPEC). The reaction buffer contains an enzyme reaction buffer (1×) provided in the kit, 5 mM MgCl2, 1 mM MnCl2, 1 mM DTT, 0.01% BSA and 0.005% Tween 20. The humanized recombinant VEGFR2 protein (Cat. No. 10012-H20B1) was purchased from Sino Biological Inc., and diluted to a 0.3 ng/μL kinase solution with the reaction buffer. The substrate reaction solution includes 0.3 μM biotin-labeled tyrosine kinase substrate and 3.5 μM ATP which were diluted with the reaction buffer. The assay buffer includes 0.1 ng/μL Eu^3+ labeled cage antibody and 18.75 nM streptavidin labeled XL665 (Cisbio, catalog number 610SAXLB) which were diluted with the reaction buffer.
The compound was dissolved and diluted to 10 μM in 100% DMSO, then a 4-fold serial dilution was performed with DMSO to the lowest concentration of 0.61 nM, and each concentration point was diluted 40-fold with the reaction buffer.
4 μL of Compound solution and 2 μL of VEGFR2 kinase solution were added to a 384-well detection plate (Corning, catalog number 4512), mixed uniformly and incubated at room temperature for 15 minutes. Then 4 μL of the substrate reaction solution was added, and the reaction mixture was incubated at room temperature for 30 minutes. Then 10 μL of the assay buffer equal to the volume of the reaction was added, mixed uniformly and allowed to stand at room temperature for 30 minutes, and then the reaction progress was detected with an Envision plate reader (Perkin Elmer) at wavelengths of 620 nm and 665 nm. The ratio of 665/620 is positively correlated with the phosphorylation degree of the substrate, thereby detecting the activity of VEGFR2 kinase. In this experiment, the group without VEGFR2 kinase protein was used as a negative control (100% inhibition), and the group with VEGFR2 kinase protein but no compound was used as a positive control (0% inhibition). The inhibition percentage of the compound on VEGFR2 activity can be calculated using the following equation: Percentage of inhibition=100−100*(signal value of test compound at a specific concentration−signal value of negative control)/(signal value of positive control—signal value of negative control)
(§2) The IC50 value of the compound is calculated from 8 concentration points with the XLfit (ID Business Solutions Ltd., UK) software through the following equation: Y=Bottom+(Top−Bottom)/(1+10^((log IC50−X)*slope factor)) • where Y is the inhibition percentage, X is the logarithm of the concentration of the test compound, Bottom is the maximum inhibition percentage, Top is the minimum inhibition percentage, and slope factor is the slope coefficient of the curve. VEGFR3 Activity Inhibition Testing
(In TR-FRET formats the signal depends on donor and acceptor labels being close together.)

Experiment [2] concerns the target VEGFR3 (Homo sapiens (Human), UniProt P35916). Description: VEGFR3 activity inhibition testing (HTRF in vitro kinase assay). To be noted: humanized recombinant VEGFR3 protein, 0.4 μM ATP. As for the experimental part:
as §2
An in vitro kinase assay was used to evaluate the effect of the compounds of the present invention on VEGFR3 activity.
as §1
The in vitro activity of VEGFR3 was determined by detecting the phosphorylation level of the substrate in the kinase reaction using a HTRF kinase detection kit (Cisbio, catalog number 62TK0PEC). […]
4 μL of Compound solution and 2 μL of VEGFR3 kinase solution were added to a 384-well detection plate (Corning, catalog number 4512), mixed uniformly and incubated at room temperature for 15 minutes. […] Then 10 μL of the assay buffer equal to the volume of the reaction was added, mixed uniformly and allowed to stand at room temperature for 30 minutes, and then the reaction progress was detected with an Envision plate reader (Perkin Elmer) at wavelengths of 620 nm and 665 nm. […]

In experiment [3] the target is VEGFR1 (Homo sapiens (Human), UniProt P17948). Description: VEGFR1 activity inhibition testing (HTRF in vitro kinase assay). To be noted: humanized recombinant VEGFR1 protein, 0.8 μM ATP. As for the experimental part: VEGFR1 Activity Inhibition Testing
VEGFR1, sequence (P17948 27-1338): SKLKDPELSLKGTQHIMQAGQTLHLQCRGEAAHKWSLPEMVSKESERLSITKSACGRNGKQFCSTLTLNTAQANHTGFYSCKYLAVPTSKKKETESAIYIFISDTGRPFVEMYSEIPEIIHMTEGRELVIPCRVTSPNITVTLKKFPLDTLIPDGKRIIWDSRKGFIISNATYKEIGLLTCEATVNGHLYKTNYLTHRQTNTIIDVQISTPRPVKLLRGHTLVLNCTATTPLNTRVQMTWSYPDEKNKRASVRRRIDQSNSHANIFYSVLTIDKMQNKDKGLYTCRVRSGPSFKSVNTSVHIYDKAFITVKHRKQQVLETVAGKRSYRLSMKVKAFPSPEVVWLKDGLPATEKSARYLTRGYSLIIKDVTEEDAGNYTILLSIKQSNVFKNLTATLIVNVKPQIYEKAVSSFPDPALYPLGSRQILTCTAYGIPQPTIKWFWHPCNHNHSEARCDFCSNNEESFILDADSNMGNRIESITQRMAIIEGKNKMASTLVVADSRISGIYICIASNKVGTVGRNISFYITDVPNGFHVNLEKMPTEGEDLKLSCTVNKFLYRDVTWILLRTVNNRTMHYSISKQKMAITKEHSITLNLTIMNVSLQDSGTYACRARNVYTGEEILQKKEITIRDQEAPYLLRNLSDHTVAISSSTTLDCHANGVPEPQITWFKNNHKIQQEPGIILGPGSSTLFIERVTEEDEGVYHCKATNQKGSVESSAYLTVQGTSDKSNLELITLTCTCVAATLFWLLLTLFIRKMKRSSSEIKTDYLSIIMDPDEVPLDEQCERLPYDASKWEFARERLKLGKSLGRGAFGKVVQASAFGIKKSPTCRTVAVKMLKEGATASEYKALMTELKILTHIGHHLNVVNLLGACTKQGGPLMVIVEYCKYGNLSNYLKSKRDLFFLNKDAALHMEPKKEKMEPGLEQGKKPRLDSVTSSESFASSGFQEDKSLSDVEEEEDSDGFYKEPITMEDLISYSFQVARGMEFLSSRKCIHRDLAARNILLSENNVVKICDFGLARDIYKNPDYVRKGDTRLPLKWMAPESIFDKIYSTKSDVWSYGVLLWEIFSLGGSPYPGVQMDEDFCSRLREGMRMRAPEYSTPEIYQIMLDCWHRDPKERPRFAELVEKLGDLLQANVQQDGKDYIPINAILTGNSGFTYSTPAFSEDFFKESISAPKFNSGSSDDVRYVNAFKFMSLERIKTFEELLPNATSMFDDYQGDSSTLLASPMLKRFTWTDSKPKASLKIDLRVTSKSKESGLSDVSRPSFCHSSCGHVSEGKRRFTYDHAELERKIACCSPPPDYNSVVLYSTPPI
An in vitro kinase assay was used to evaluate the effect of the compounds of the present invention on VEGFR1 activity.
as §1
The in vitro activity of VEGFR1 was determined by detecting the phosphorylation level of the substrate in the kinase reaction using a homogeneous time-resolved fluorescence (HTRF) kinase detection kit (Cisbio, catalog number 62TKOPEC). The reaction buffer contains an enzyme reaction buffer (1×) provided in the kit, 5 mM MgCl2, 1 mM MnCl2, 1 mM DTT. […]
4 μL of Compound solution and 2 μL of VEGFR1 kinase solution were added to a 384-well detection plate (Corning, catalog number 4512), mixed uniformly and incubated at room temperature for 15 minutes. […] Then 10 μL of the assay buffer equal to the volume of the reaction was added, mixed uniformly and allowed to stand at room temperature for 30 minutes, and then the reaction progress was detected with an Envision plate reader (Perkin Elmer) at wavelengths of 620 nm and 665 nm. […] The inhibition percentage of the compound on VEGFR1 activity can be calculated using the following equation: Percentage of inhibition=100−100*(signal value of test compound at a specific concentration−signal value of negative control)/(signal value of positive control−signal value of negative control) […]

The source of these data is patent US12391666B2, “Indoline-1-formamide compound, preparation method therefor, and medical use thereof” (Beijing Innocare Pharma Tech Co., Ltd., priority 2018, dated 2025).

pIC50: −log10 of the molar value. Some results are limits rather than exact numbers.

VEGFR2, sequence (P35968 20-1356): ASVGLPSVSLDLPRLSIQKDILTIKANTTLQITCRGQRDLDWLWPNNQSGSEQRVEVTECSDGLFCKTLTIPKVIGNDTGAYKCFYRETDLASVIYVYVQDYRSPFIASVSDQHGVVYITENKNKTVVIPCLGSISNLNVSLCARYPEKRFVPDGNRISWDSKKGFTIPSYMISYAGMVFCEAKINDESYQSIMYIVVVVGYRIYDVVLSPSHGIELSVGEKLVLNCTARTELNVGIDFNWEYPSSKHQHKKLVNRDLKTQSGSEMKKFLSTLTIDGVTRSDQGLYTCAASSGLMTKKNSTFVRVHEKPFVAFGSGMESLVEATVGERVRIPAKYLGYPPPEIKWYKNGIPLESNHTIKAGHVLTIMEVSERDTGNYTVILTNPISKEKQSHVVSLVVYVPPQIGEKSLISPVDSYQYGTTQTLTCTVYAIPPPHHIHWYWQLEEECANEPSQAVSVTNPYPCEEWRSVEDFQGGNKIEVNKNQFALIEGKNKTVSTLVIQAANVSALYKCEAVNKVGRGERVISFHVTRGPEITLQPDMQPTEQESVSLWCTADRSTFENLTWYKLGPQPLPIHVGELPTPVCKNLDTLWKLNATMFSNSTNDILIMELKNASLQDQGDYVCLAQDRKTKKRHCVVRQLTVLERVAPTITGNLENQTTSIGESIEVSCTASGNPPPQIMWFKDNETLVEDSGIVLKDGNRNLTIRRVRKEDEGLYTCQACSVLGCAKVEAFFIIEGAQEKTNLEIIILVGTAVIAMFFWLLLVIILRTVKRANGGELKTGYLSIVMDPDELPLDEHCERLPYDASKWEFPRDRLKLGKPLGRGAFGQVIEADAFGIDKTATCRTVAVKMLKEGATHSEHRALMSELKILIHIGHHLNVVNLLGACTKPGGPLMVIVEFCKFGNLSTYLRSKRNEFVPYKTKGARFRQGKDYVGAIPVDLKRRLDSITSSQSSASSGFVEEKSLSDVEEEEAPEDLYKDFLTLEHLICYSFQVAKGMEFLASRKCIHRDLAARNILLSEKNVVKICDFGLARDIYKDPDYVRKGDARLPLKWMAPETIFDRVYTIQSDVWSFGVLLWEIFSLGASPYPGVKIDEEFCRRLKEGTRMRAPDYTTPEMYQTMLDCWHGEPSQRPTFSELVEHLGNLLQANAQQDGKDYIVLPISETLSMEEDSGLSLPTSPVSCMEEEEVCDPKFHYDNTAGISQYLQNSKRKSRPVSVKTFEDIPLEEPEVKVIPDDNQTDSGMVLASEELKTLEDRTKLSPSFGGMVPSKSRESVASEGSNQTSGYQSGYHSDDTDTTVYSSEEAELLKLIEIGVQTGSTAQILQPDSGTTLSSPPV
VEGFR3, sequence (P35916 25-1363): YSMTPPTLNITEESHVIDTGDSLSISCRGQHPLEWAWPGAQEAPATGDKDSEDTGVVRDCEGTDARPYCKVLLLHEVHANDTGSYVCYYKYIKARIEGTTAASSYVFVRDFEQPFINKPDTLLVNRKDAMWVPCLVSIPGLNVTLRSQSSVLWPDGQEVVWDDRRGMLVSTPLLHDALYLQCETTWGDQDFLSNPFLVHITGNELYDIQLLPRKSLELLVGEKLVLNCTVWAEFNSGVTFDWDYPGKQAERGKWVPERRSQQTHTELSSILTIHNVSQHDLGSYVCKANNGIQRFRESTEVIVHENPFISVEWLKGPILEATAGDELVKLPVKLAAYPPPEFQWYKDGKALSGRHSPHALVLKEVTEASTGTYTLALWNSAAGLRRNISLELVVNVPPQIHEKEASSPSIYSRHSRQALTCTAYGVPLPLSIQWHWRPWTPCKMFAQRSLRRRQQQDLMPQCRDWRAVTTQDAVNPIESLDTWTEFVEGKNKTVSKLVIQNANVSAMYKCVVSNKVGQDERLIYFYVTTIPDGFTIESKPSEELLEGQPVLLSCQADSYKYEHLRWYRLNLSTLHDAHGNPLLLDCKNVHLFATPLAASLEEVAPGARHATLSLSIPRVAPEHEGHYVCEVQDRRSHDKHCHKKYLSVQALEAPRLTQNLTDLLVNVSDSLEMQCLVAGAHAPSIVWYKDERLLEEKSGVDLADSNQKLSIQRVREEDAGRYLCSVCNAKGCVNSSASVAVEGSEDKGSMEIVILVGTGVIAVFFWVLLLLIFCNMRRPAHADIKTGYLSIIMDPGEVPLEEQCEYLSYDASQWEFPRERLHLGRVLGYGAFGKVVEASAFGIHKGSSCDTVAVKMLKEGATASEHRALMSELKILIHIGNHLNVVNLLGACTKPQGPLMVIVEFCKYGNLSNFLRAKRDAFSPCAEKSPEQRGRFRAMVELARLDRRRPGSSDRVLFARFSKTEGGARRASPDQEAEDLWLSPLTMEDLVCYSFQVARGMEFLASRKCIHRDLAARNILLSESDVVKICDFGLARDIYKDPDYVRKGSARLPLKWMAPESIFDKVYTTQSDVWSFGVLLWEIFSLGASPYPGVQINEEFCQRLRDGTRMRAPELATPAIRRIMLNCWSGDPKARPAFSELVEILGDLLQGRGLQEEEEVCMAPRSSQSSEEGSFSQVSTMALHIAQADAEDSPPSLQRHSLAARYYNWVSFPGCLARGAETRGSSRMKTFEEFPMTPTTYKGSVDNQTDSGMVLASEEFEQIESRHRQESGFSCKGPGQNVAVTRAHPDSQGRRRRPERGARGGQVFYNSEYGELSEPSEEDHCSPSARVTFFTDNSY

With `COc1cc2nccc(Oc3ccc4c(c3)CCN4C(=O)Nc3ccc(F)cc3)c2cc1C(N)=O` [Compound 4, 4-((1-((4-fluorophenyl)carbamoyl)indolin-5-yl)oxy)-7-methoxyquinoline-6-carboxamide], the pIC50 in experiment [1] is above 8.00.
As to `COc1cc2nccc(Oc3ccc4c(c3)CCN4C(=O)NC3CC3)c2cc1C(N)=O` [Compound 1, 4-((1-(cyclopropylcarbamoyl)indolin-5-yl)oxy)-7-methoxyquinoline-6-carboxamide], the pIC50 in experiment [2] is above 8.00; in experiment [3] it was 7.00 to 8.00; in experiment [1], above 8.00.
With `COc1cc2nccc(Oc3ccc4c(c3)CCN4C(=O)NC3CC3)c2cc1OC` [Compound 5, N-cyclopropyl-5-((6,7-dimethoxyquinolin-4-yl)oxy)indoline-1-carboxamide], the pIC50 in experiment [1] was 7.00 to 8.00.
On the same count and under the same terms, then `COc1cc2nccc(Oc3ccc4c(c3)CCN4C(=O)Nc3cc(C)on3)c2cc1C(N)=O` [Compound 6, 7-methoxy-4-((1-((5-methylisoxazol-3-yl)carbamoyl)indolin-5-yl)oxy)quinoline-6-carboxamide], with above 8.00; and `NC(=O)c1cc2c(Oc3ccc4c(c3)CCN4C(=O)NC3CC3)ccnc2cc1O` [Compound 2, 4-((1-(cyclopropylcarbamoyl)indolin-5-yl)oxy)-7-hydroxyquinoline-6-carboxamide], with 7.00 to 8.00; and `CNC(=O)N1CCc2cc(Oc3ccnc4cc(OC)c(C(N)=O)cc34)ccc21` [Compound 3, 7-methoxy-4-((1-(methylcarbamoyl)indolin-5-yl)oxy)quinoline-6-carboxamide], with 7.00 to 8.00.

What is called pIC50 is the negative decadic logarithm of the IC50, by convention in mol/L.
